In the NIST ThermoML archive (doi:10.1021/je700260f):
Numbers after ± are expanded uncertainties.

Conditions: 333.15 K, Liquid, Vibrating tube method

FC(C(F)(F)F)C(F)(F)F [1,1,1,2,3,3,3-heptafluoropropane]
Conditions | mass density [kg/m3]
6413 kPa | 1291.3 ± 1.5
6442 kPa | 1291.6 ± 1.5
6789 kPa | 1295.3 ± 1.5
6821 kPa | 1295.6 ± 1.5
6856 kPa | 1296 ± 1.5
6887 kPa | 1296.2 ± 1.5
6965 kPa | 1297 ± 1.5
7009 kPa | 1297.4 ± 1.5
8110 kPa | 1308.2 ± 1.5
8143 kPa | 1308.5 ± 1.5
8176 kPa | 1308.8 ± 1.5
8204 kPa | 1309.2 ± 1.5
8236 kPa | 1309.5 ± 1.5
8273 kPa | 1309.8 ± 1.5
8298 kPa | 1310.1 ± 1.5
8328 kPa | 1310.3 ± 1.5
8357 kPa | 1310.6 ± 1.5
8395 kPa | 1311 ± 1.5
8425 kPa | 1311.2 ± 1.5
8467 kPa | 1311.5 ± 1.5
8497 kPa | 1311.8 ± 1.5
8538 kPa | 1312.3 ± 1.5
8560 kPa | 1312.4 ± 1.5
8592 kPa | 1312.8 ± 1.5
8622 kPa | 1313 ± 1.5
8665 kPa | 1313.3 ± 1.5
8701 kPa | 1313.7 ± 1.5
8732 kPa | 1313.9 ± 1.5
8768 kPa | 1314.3 ± 1.5
8804 kPa | 1314.6 ± 1.5
8846 kPa | 1314.9 ± 1.5
8884 kPa | 1315.2 ± 1.5
8912 kPa | 1315.8 ± 1.5
8940 kPa | 1316 ± 1.5
9044 kPa | 1316.8 ± 1.5
9087 kPa | 1317.2 ± 1.5
9121 kPa | 1317.5 ± 1.5
9164 kPa | 1317.9 ± 1.5
9196 kPa | 1318 ± 1.5
9219 kPa | 1318.3 ± 1.5
9251 kPa | 1318.6 ± 1.5
9270 kPa | 1318.8 ± 1.5
9294 kPa | 1319 ± 1.5
9321 kPa | 1319.3 ± 1.5
9349 kPa | 1319.5 ± 1.5
9370 kPa | 1319.7 ± 1.5
9402 kPa | 1319.9 ± 1.5
9422 kPa | 1320.1 ± 1.5
9455 kPa | 1320.4 ± 1.5
9483 kPa | 1320.7 ± 1.5
9512 kPa | 1320.9 ± 1.5
9533 kPa | 1321.1 ± 1.5
9552 kPa | 1321.1 ± 1.5
9578 kPa | 1321.4 ± 1.5
9599 kPa | 1321.5 ± 1.5
9631 kPa | 1321.9 ± 1.5
9652 kPa | 1322.1 ± 1.5
9684 kPa | 1322.3 ± 1.5
9713 kPa | 1322.7 ± 1.5
9737 kPa | 1322.8 ± 1.5
10680 kPa | 1330.6 ± 1.5
10703 kPa | 1330.9 ± 1.5
10737 kPa | 1331 ± 1.5
10763 kPa | 1331.3 ± 1.5
10786 kPa | 1331.6 ± 1.5
10813 kPa | 1331.6 ± 1.5
11004 kPa | 1333.2 ± 1.5
11030 kPa | 1333.5 ± 1.5
11055 kPa | 1333.5 ± 1.5
11083 kPa | 1333.8 ± 1.5
11507 kPa | 1337.2 ± 1.5
11567 kPa | 1337.7 ± 1.5
11594 kPa | 1337.8 ± 1.5
11620 kPa | 1338 ± 1.5
11651 kPa | 1338.3 ± 1.5
11678 kPa | 1338.4 ± 1.5
11705 kPa | 1338.6 ± 1.5
11734 kPa | 1338.8 ± 1.5
11757 kPa | 1339 ± 1.5
12501 kPa | 1344.5 ± 1.5
12533 kPa | 1344.8 ± 1.5
12561 kPa | 1345 ± 1.5
12589 kPa | 1345.2 ± 1.5
12616 kPa | 1345.4 ± 1.5
12648 kPa | 1345.7 ± 1.5
12675 kPa | 1345.9 ± 1.5
12698 kPa | 1346.1 ± 1.5
12730 kPa | 1346.2 ± 1.5
12754 kPa | 1346.4 ± 1.5
12789 kPa | 1346.6 ± 1.5
12823 kPa | 1347 ± 1.5
12846 kPa | 1347.1 ± 1.5
13551 kPa | 1352.2 ± 1.5
13574 kPa | 1352.3 ± 1.5
13601 kPa | 1352.5 ± 1.5
13746 kPa | 1353.4 ± 1.5
13772 kPa | 1353.6 ± 1.5
13801 kPa | 1353.7 ± 1.5
13830 kPa | 1354.1 ± 1.5
13863 kPa | 1354.3 ± 1.5
13893 kPa | 1354.5 ± 1.5
14170 kPa | 1356.5 ± 1.5
14195 kPa | 1356.8 ± 1.5
